Experiment: Human HepG2 cell viability assay in 384 well format
Format: toxicity, cell-based
Design: dose 125 nL, time 70.5 hour; concentration not given beside the values
Conditions: HepG2 cells, read-out: Inhibition

Row | Structure (SMILES) | cytotoxicity at 70.5 h [%]
1 | CC(C)(C)c1ncc(C(=O)NCCNc2ncccn2)s1 | -4.56
2 | CC(=O)NCCNC(=O)c1cnc(C(C)(C)C)s1 | -8.27
3 | CN(CCOc1cccc(F)c1)Cc1nc2c(cnn2C)c(=O)[nH]1 | -8.53
4 | CNC(=O)NC(=O)CCN1CCN(c2ccc(C(=O)OC)cc2)CC1C (configuration not stated) | -9.55
5 | CC(=O)N1CCC(C(=O)NCc2cc[nH]n2)(c2ccccc2)CC1 | -5.74
6 | CC(C)(C)c1ncc(C(=O)NC(C(N)=O)c2ccccc2)s1 (configuration not stated) | 15.8
7 | O=C(NCc1cc[nH]n1)N1CCCC(N2CCCC2)C1 (configuration not stated) | -4.82
8 | COc1c(CNC2CCN(c3ccccn3)CC2)c(C(C)C)nn1C | 5.04
9 | CC(C(=O)N1CCCN(c2ccccc2C#N)CC1)n1cccn1 (configuration not stated) | -7.8
10 | CC(C(=O)N1CCCN(c2ccc(C#N)cc2)CC1)n1cccn1 (configuration not stated) | -3.9
11 | Cc1cnn(C2CCCN(C(=O)Cc3c(C)nn(C)c3C)C2)c1 (configuration not stated) | 0.294
12 | Cc1ncc2c(n1)CN(CC(=O)Nc1nnc(C)s1)CC2 | -8.66
13 | Cc1ncc2c(n1)CN(CC(=O)Nc1cc(C)on1)CC2 | -5.61
14 | COC(=O)c1ccc(N2CCN(CC(=O)NC(N)=O)C(C)C2)cc1 (configuration not stated) | -3.82
15 | Cc1ccc(F)c(NS(=O)(=O)c2cc3c(c(C(=O)O)c2)OCCO3)c1 | 2.59
16 | O=C(O)c1cc(S(=O)(=O)Nc2ccc(F)cc2F)cc2c1OCCO2 | -2.86
17 | Cc1cc(F)ccc1NS(=O)(=O)c1cc2c(c(C(=O)O)c1)OCCO2 | -4.92
18 | Cn1ccnc1CN1CCCN(C(=O)c2ccc(O)nc2)CC1 | -4.72
19 | Cn1ccnc1CN1CCCN(C(=O)c2ccc3[nH]nnc3c2)CC1 | -4.07

Row | Structure (SMILES) | cytotoxicity at 70.5 h [%]
20 | CCCc1n[nH]c(C2CN(C(=O)c3cccnc3N(C)C)CCO2)n1 (configuration not stated) | -0.878
21 | CN1CC(C(=O)NCCOc2ccc3c(c2)OCO3)CC1=O (configuration not stated) | -1.1
22 | Cn1ncc2c(=O)[nH]c(CN3CCCC3CC(C)(C)C)nc21 (configuration not stated) | -4
23 | Cn1ncc2c(=O)[nH]c(CN3CCCC3CCc3ccccc3)nc21 (configuration not stated) | -1.66
24 | CCn1cc(NC(=O)C2CCN(CC(=O)NC3CCCC3)CC2)cn1 | -0.528
25 | O=C(CCc1ccccc1F)N1CCC(Nc2cccnn2)CC1 | -1.09
26 | Cc1nc(C)n(CC2CCCN(c3ccc(C#N)cn3)C2)n1 (configuration not stated) | -3.58
27 | O=C(c1csc(-c2ccccn2)n1)N1CCCC1Cn1cccn1 (configuration not stated) | -2.56
28 | O=C(c1csc(C2CC2)n1)N1CCCCC1Cn1cccn1 (configuration not stated) | 21.8
29 | Cc1cc(NC(=O)CN(C)C2CCCN(c3cccnn3)C2)on1 (configuration not stated) | 23.1
30 | O=C(c1csc(-c2cnccn2)n1)N1CCCC1Cn1cccn1 (configuration not stated) | 2.23
31 | O=C(c1csc(-c2ncccn2)n1)N1CCCC1Cn1cccn1 (configuration not stated) | 22.5
32 | O=C(CCOc1ccccc1F)N1CCCCC1Cn1cccn1 (configuration not stated) | -4.38
33 | Cc1nc(C)n(CC2CN(Cc3cc(C#N)ccc3F)CCO2)n1 (configuration not stated) | -1.96
34 | Cc1nc(C)n(CC2CN(c3ncccc3C#N)CCO2)n1 (configuration not stated) | -0.989
35 | CN(CC(=O)NCc1ccccn1)C1CCCN(c2cccnn2)C1 (configuration not stated) | 0.301
36 | Cc1nccn1C1CCCN(C(=O)c2ccc3nnc(C)n3c2)C1 (configuration not stated) | 14.1
37 | CC(C)(C)C(=O)NCCC(=O)N1CCC(Nc2cccnn2)CC1 | -0.84
38 | Cc1cccc(-c2nc(CNC3CCc4nc(C)nn4C3)no2)c1 (configuration not stated) | -3.36

Row | Structure (SMILES) | cytotoxicity at 70.5 h [%]
39 | CC(=O)N(Cc1ncc(C)o1)C1CCN(CCc2cccs2)C1 (configuration not stated) | 17.8
40 | CCc1nc(CN(C(C)=O)C2CCN(CCc3cccs3)C2)no1 (configuration not stated) | 13
41 | CC(C)(C)c1nc(CN2CCOC(Cn3cncn3)C2)cs1 (configuration not stated) | 1.47
42 | CCOc1cc(C(=O)N2CCCC(c3noc(C(C)C)n3)C2)ccn1 (configuration not stated) | -3.39
43 | CC(C)c1nc(CN2CCOC(Cn3cncn3)C2)cs1 (configuration not stated) | -3.19
44 | COCCN1CCC(CNC(=O)C2(c3cc(C)cc(C)c3)CC2)CC1 | -1.48
45 | CCc1cnc(CN(C(C)=O)C2CCN(CC3(O)CCCCC3)C2)o1 (configuration not stated) | 13.4
46 | COCCN1CCC(CNC(=O)C2(c3cccc(Cl)c3)CC2)C1 (configuration not stated) | -0.451
47 | COCCN1CCC(CNC(=O)C2(c3ccccc3)CCOCC2)C1 (configuration not stated) | -4.78
48 | COc1ccc(C2CCCN2Cc2ccc(S(=O)(=O)N(C)C)o2)cc1 (configuration not stated) | -1.88
49 | O=C(CN1CCCC1Cn1cncn1)NCCOc1ccccc1 (configuration not stated) | -2.53
50 | CN(C)S(=O)(=O)c1ccc(CN2CCCC2c2cccs2)o1 (configuration not stated) | 15.3
51 | Cn1cc(-c2nc(CN3CCOC(Cn4cncn4)C3)cs2)cn1 (configuration not stated) | 1.83
52 | CCOc1ccc(C(=O)N(Cc2cnn(C)c2)C(C)C)cc1OCC | -3.25
53 | CCCN1CCC(CNC(=O)C2(c3cc(C)cc(C)c3)CCC2)C1 (configuration not stated) | 16.9
54 | CCc1cnc(CN(C(C)=O)C2CCN(CCc3ccncc3)C2)o1 (configuration not stated) | -1.81
55 | COc1ccc(C2=CCN(C(=O)C3CCC3)CC2)cc1 | -1.58
56 | CN(C)C(=O)CCS(=O)(=O)Cc1cc(Cl)c2c(c1)OCO2 | -3.5
57 | COCCN1CCC(CNC(=O)C2(c3ccc(F)cc3)CCC2)CC1 | -0.878

Source: ChEMBL document CHEMBL3507680, “University of Dundee, Gates Library screen for HepG2 cell viability”
